The results in this text go back to patent US9605013B2, “Derivatives of hemin with antibacterial and antiviral activity” (OBSCHESTVO S OGRANICHENNOI OTVETSTVENNOSTIYU …, priority 2011, dated 2017).

Common to all, as to assay type: cell-based
Assay [1] deals with Bacillus subtilis BKM B-501. Description: Antibacterial activity, serial dilutions in liquid MH medium. The conditions noted are these: for MIC: MH medium, 20 h, 37° C., 100% growth inhibition; for MBC: no colonies on agarized MH medium. In outline: (§1)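 Broth microdilution in Mueller-Hinton medium at 37 °C with stirring, using exponential-phase cultures seeded at 5×10^4 to 1×10^5 cells/mL with twofold serial compound dilutions. Growth inhibition read as A595 after 20 h, corrected for compound absorbance; MIC and MBC determined.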

In assay [2] the test system is Micrococcus luteus BKM Ac-2230. The description is as above. The note with it: for MIC: MH medium, 20 h, 37° C., 100% growth inhibition; for MBC: no colonies on agarized MH medium. Summed up: as §1
In assay [3] the test system is Staphylococcus aureus 209P. The description is as above. The conditions noted are these: for MBC: no colonies on agarized MH medium. In outline: as §1
For assay [4], the system named is Enterococcus faecalis No. 559. Description: Antibacterial specific activity, twofold dilutions, visual growth evaluation. The note with it: E. faecalis 559; 36° C., 24 hours. In outline:
(§2)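 Twofold dilution series, water- or DMSO-soluble compounds; 5×10^5 CFU/ml; 36° C., 24 h; visual growth read; MIC = last suppressing dilution.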

In assay [5] the test system is Escherichia coli 4300. The description is as above. The note with it: E. coli 4300; 36° C., 24 hours.
Assay [6] has as its system Staphylococcus aureus No. 100 KC. The description is as above. The note with it: S. aureus 100 KC; 36° C., 24 hours. In outline: as §2
Assay [7] concerns Staphylococcus aureus No. 3797 (MRSA). The description is as above. The conditions noted are these: St. aur No. 3797 MRSA; 36° C., 24 hours. Summed up:
as §2

Assay [8] has as its system Staphylococcus epidermidis No. 533. Described as above. The conditions noted are these: S. epidermis 533; 36° C., 24 hours. Summed up: as §2
Assay [9] has as its system Vancomycin-resistant Enterococcus faecium 569. The assay is described as above. The note with it: Vancomycin-resistant E. faecium 569; 36° C., 24 hours. Summed up: as §2

Consider `C=CC1=C(C)c2cc3[n-]c(cc4[n-]c(cc5nc(cc1n2)C(C)=C5C=C)c(C)c4CCC(=O)N[C@@H](CO)C(=O)O)c(CCC(=O)N[C@@H](CO)C(=O)O)c3C.[Cl-].[Fe+3]` [VI, 6,7-bis-(N^α-Seryl]-Protohemin (IX)], for which the MIC in assay [1] was 12.5 µM; in assay [2] it was 6.3 µM; in [3] (MH medium, 20 h, 37° C., 100% growth inhibition), 50 µM; in assay [4], greater than 50.0 µM; in assay [5] it was greater than 50.0 µM; in assay [6], 5.21 µM. For the same compound, the figures for the MIC in [7], in assay [8] and in assay [9] were 0.78 µM, 3.12 µM and greater than 50.0 µM, respectively. Moreover, the MBC in assay [1] and in assay [2] was 25 µM in each case.
Consider `C=CC1=C(C)c2cc3[n-]c(cc4[n-]c(cc5nc(cc1n2)C(C)=C5C=C)c(C)c4CCC(=O)N[C@@H](CCCNC(=N)N)C(N)=O)c(CCC(=O)N[C@@H](CCCNC(=N)N)C(N)=O)c3C.[Cl-].[Fe+3]` [II, 6,7-bis-(Amide N^α-Arginyl)-Protohemin (IX)], for which the MIC was found to be 0.8 µM in [1]; 0.8 µM in [2]; 1.3 µM in assay [4]; 41.6 µM in assay [5]; 2.6 µM in assay [6]; 50 µM in [7]. Further, the MIC is 0.39 µM in [8] and 3.12 µM in assay [9]. In addition, the MBC in assay [1] stood at 0.8 µM; in assay [2] it was 0.8 µM; in [3], 6.3 µM.
Take “6,7-bis-[(Diamide N^α-L-Arginyl)-L-glutamyl]-Protohemin (IX)”: the MIC in assay [1] was 1.6 µM; in assay [2] it was 0.8 µM; in assay [4], 3.12 µM; in [5], 16.6 µM; in assay [6], 0.78 µM; in assay [8] it was 0.78 µM. Besides, the MIC in assay [9] was found to be 6.25 µM. Moreover, the MBC in assay [1] is 1.6 µM; in assay [2] it was 0.8 µM; in assay [3] it was 25 µM.
For the compound “6,7-bis-(Amide N^α-Glycyl)-Protohemin (IX) [IV]”, the MIC was 1.6 µM in [1]; 0.8 µM in assay [2]; 0.39 µM in assay [4]; greater than 50.0 µM in [5]; 0.39 µM in [6]; 3.12 µM in [7]. Further, the values for the MIC in [8] and in [9] were 1.56 µM and 50 µM, respectively. Also, the MBC in assay [1] came to 1.6 µM; in [2], 0.8 µM.
As to `C=CC1=C(C)c2cc3[n-]c(cc4[n-]c(cc5nc(cc1n2)C(C)=C5C=C)c(C)c4CCC(=O)N[C@@H](CO)C(N)=O)c(CCC(=O)N[C@@H](CO)C(N)=O)c3C.[Cl-].[Fe+3]` [V, 6,7-bis-(Amide N^α-Seryl)-Protohemin (IX)], the MIC in [1] is 1.6 µM; in assay [2], 0.8 µM; in [4] it was 25 µM; in assay [5], greater than 50.0 µM; in assay [6] it was 0.52 µM; in assay [7] it was 1.56 µM. Also, the MIC is 1.56 µM in assay [8] and 25 µM in assay [9]. The MBC in [1] was found to be 1.6 µM; in assay [2], 0.8 µM; in assay [3] it was 12.5 µM.
